Results: patent publication US6667173B2, “Nucleic acids encoding platelet derived growth factor-alpha receptors” (The Schepens Eye Research Institute, priority 2000, dated 2003)
“Also recorded” adds a separate entry of the source.

Key:
SHP-2 = assay: Co-immunoprecipitation of SHP-2 with αPDGFR mutants in F cells; assay type: cell-based, mouse; conditions: 50 ng/ml PDGF-BB, 5 minutes
Procedure: (§1) The ability of the αPDGFR mutants to undergo ligand dependent tyrosine phosphorylation and to associate with signaling enzymes was then tested. F cells expressing various αPDGFR mutants were grown to subconfluence and serum starved overnight. Cells were either left resting (−) or stimulated with 50 ng/ml PDGF-BB (+) for 5 minutes, and lysed. The αPDGFR was immunoprecipitated with αPDGFR antibody, as described above, and the resulting immunoprecipitates were resolved by 7.5% SDS-PAGE and transferred onto Immobilon. The segment of the blot containing the αPDGFR was first blotted with anti-phosphotyrosine antibodies, then stripped and reprobed with an anti-αPDGFR antibody. Portions of the membrane that contained the proteins of the appropriate molecular mass were immunoblotted for PLCγ, the regulatory subunit of PI3K (p85), or SHP-2. Crude rabbit anti-p85 antibody is from Dr. A. Toker (Beth Israel Hospital/Harvard Medical School, Boston, Mass.). The monoclonal antibodies against PLCγ and SHP-2 were purchased from Upstate Biotechnology Inc.

PI3K (p85) = assay: Co-immunoprecipitation of the regulatory subunit of PI3K (p85) with αPDGFR mutants in F cells; assay type: cell-based, mouse; conditions: 50 ng/ml PDGF-BB, 5 minutes
Procedure: as §1

PLCγ = assay: Co-immunoprecipitation of PLCγ with αPDGFR mutants in F cells; assay type: cell-based, mouse; conditions: 50 ng/ml PDGF-BB, 5 minutes
Procedure: as §1

F cells = assay: Collagen gel contraction assay of F cells expressing αPDGFR mutants; assay type: cell-based, mouse; conditions: PDGF-BB (50 ng/ml), 48 hours
Procedure: The contraction assay was based on a previously described reference, Skuta, G. et al. (1999) J. Biol. Chem. 274:30163, with the following modifications. Fα cells were suspended in 1.5 mg/ml of neutralized collagen I (Cohesion vitrogen 100, Palo Alto, Calif.) at a density of 10^6 cells/ml, and were transferred into the 24-well plate (Falcon, Franklyn Lakes, N.J.) that had been preincubated with phosphate-buffer saline (PBS) with 5 mg/ml of bovine serum albumin (BSA) overnight. The gel was solidified by incubating at 37° C. for 90 minutes, and then the well was flooded with DMEM+5 mg/ml of BSA supplemented with an amount of vitreous such that the final concentration of vitreous in the culture medium was 1, 5 or 20%. The gels were incubated at 37° C. with 5% CO2. The initial gel diameter was 15 mm. The media was replaced every 24 hours and the gel diameter was measured after 48 hours. The extent of contraction was calculated by subtracting the diameter of the well at 48 hours from the initial diameter (15 mm). Each experimental condition was assayed in triplicate, and at least three independent experiments were performed. Unpaired t-test was performed to detect statistic difference in contraction assay.
To determine the signaling pathways that drive contraction, cells expressing the αPDGFR mutants were subjected to the collagen gel contraction assay described above. Accordingly, F cells expressing the indicated αPDGFRs were subjected to the collagen gel assay in the presence of buffer, PDGF-BB (50 ng/ml), TGFβ1 (1 ng/ml), or FBS (10%). The data presented are the mean±standard deviation measured at the 48 hours time point. Each experimental condition was assayed in triplicate, and at least 3 independent experiments were performed.

Src family kinases = conditions: cited from earlier work
rabbit eyes = conditions: previously found (Rosenkranz et al. 2000); cited from earlier work

## F72/74: αPDGFR mutant, Tyr to Phe substitution at 572 and 574
SHP-2
  recruitment of SHP-2 (Properties): bind all of these signaling enzymes
PI3K (p85)
  recruitment of PI3K / p85 (Properties): bind all of these signaling enzymes
PLCγ
  recruitment or activation of PLCγ (Properties): bind all of these signaling enzymes
F cells
  PDGF-dependent contraction: no effect on contraction
Src family kinases
  recruitment or activation of Src family kinases (Properties): selectively fails to associate with Src family kinases; also recorded: Fails to recruit or activate
Rabbit eyes
  potential to induce PVR: induced PVR with slightly accelerated kinetics
